Laboratory results as given in US4605641A, “Synthetic vasoactive intestinal peptide analogs” (Hoffmann-La Roche Inc., priority 1984, dated 1986).
Peptide text beside a SMILES is read from it.

What was measured:
[1] = system: guinea pig trachea smooth muscle; assay: Bronchodilator (relaxant) effect on isolated guinea pig tracheal rings; type: cell-based; settings: for Relative Potency: guinea pig trachea, relative to VIP = 100%; for EC50: guinea pig tracheal rings, relaxation as % of maximum response to VIP 10^-6 M, three tissues pooled, linear regression, read-out: EC50 (M), agonist activity, bronchodilator effect
Source text: The bronchodilatory effect of VIP analogs was studied in a model utilizing guinea pig trachea. Wasserman, M. A. et al. "Comparative In Vitro Tracheal Relaxant Effects of Porcine and Hen VIP" in Vasoactive Intestinal Peptide ed. Said, S.I., Raven Press (New York, 1982).
All tissues were taken from male albino guinea pigs weighing 400-600 g, anesthetized with urethane 2 g/kg i.p. After exsanguination the trachea was removed and divided into four ring segments (3 mm length). Each ring was suspended by two 30 guage stainless steel wires in a 10 ml jacket tissue bath and attached via 4-0 silk thread to a Grass force displacement transducer (model FT03C, Grass Instrument Co., Quincy, MA), for isometric recording of tension. The smooth muscle was bathed in modified Krebs solution of the following composition: NaCl, 120 mM; KCl, 4.7 mM; CaCl2, 2.5 mM; MgSO4.7H2 O; 1.2 mM; NaHCO3, 25 mM; KH2 PO4 monobasic, 1.2 mM; and dextrose, 10 mM. Tissue baths were maintained at 37.5° C. and constantly bubbled with 95% O2 and 5% CO2. Responses were recorded on an 8 channel and 4 channel Hewlett-Packard (model 7702B and 7754A, respectively) recorder (Hewlett Packard, Paramus, NJ). Tracheal rings were placed under a resting tension of 1.5 g which was determined to be at or near optimal in preliminary experiments. Frequent readjustments of tension were required during the 60 min. stabilization period which followed. Tissues were rinsed at 15 min. intervals.
(§1) Cumulative concentration response curves were obtained for each tissue by successive […] in the bath concentration of VIP or potential VIP agonists according to the method of VanRossum J. M., Arch. Int Pharmacodyn, 143, 299-330 (1963). Only one cummulative dose response curve was obtained on a single piece of tissue. To minimize variability between tissues, relaxant responses are expressed as a percentage of the maximum response obtainable to VIP (10^-6 M=100%) added at the end of the concentration response curve. Responses obtained from three tissues were pooled and EC50 values were determined by linear regression.

[2] = system: Human Bronchial Smooth Muscle; assay: Relaxation of isolated human bronchial smooth muscle rings; type: cell-based; settings: human bronchial smooth muscle; relative to VIP (1-28) = 100%
Procedure: Human bronchial smooth muscle or intra-pulmonary arteries were obtained from surgical section or autopsy from Overlook Hospital, Summit, N.J. Airway or vascular rings were suspended by two 30 gauge stainless steel wires in a 10 ml jacket tissue bath and attached via 4-0 silk thread to a Grass forcer displacement transducer (model FT030C, Grass Instrument Co., Quincy, MA), for isometric recording of tension. The smooth muscle was bathed in modified Kreb's solution of the following composition: NaCl, 120 mM; KCl, 4.7 mM; CaCL2, 2.5 mM; MgSO4.7H2 O; 1.2 mM; NaHCO3, 25 mM; KH2 PO4 monobasic, 1.2 mM; and dextrose, 10 mM. Tissue baths were maintained at 37.5° C. and constantly bubbled with 95% O2 and 5% CO2. Responses were recorded on a 8 channel and 4 channel Hewlett-Packard (model 7702B and 7754A, respectively) recorder (Hewlett Packard, Paramus, NJ). All tissues were placed under a resting tension (airway, 1.5 g; vascular, 1 g) which was determined to be near optimal in preliminary experiments. Frequent readjustments of tension were required during the 120-180 min. stabilization period which followed. Tissues were rinsed at 15 min. intervals. Vascular tissues were primed once with phenylephrine (10^-5 M) and washed for an additional hour. Steady state contractions of vacular tissues were obtained with phenylephrine (10^-5 M) while airway tissues were precontracted with histamine (3×10^-4 M).
as §1, with “noted above.” for “J. M., Arch. Int Pharmacodyn, 143, 299-330 (1963).”, “cumulative” for “cummulative”, “were” for “are”, “papaverine (vascular, 10^-4 M=100%) or isoproterenol (airway, 10^-4” for “VIP (10^-6”, “curve. […]” for “curve.”, “four” for “three”

SMILES	Relative Potency [1]	EC50 [1]	Rel. Potency [2]
CCCC[C@H](NC(=O)[C@H](CCC(N)=O)NC(=O)[C@H](CCCCN)NC(=O)[C@H](CCCNC(=N)N)NC(=O)[C@H](CC(C)C)NC(=O)[C@H](CCCCN)NC(=O)[C@@H](NC(=O)[C@H](Cc1ccc(O)cc1)NC(=O)[C@H](CC(N)=O)NC(=O)[C@H](CC(=O)O)NC(=O)[C@@H](NC(=O)[C@H](Cc1ccccc1)NC(=O)[C@@H](NC(=O)[C@H](C)NC(=O)[C@H](CC(=O)O)NC(=O)[C@H](CO)NC(=O)[C@@H](N)Cc1c[nH]cn1)C(C)C)[C@@H](C)O)[C@@H](C)O)C(=O)N[C@@H](C)C(=O)N[C@H](C(=O)N[C@@H](CCCCN)C(=O)N[C@@H](CCCCN)C(=O)N[C@@H](Cc1ccc(O)cc1)C(=O)N[C@@H](CC(C)C)C(=O)N[C@@H](CC(N)=O)C(=O)N[C@@H](CO)C(=O)N[C@H](C(=O)N[C@@H](CC(C)C)C(=O)N[C@@H](CC(N)=O)C(N)=O)[C@@H](C)CC)C(C)C [(Lys^12, Nle^17)--VIP, (Lys^12, Nle^17)-VIP] (HELM PEPTIDE1{H.S.D.A.V.F.T.D.N.Y.T.K.L.R.K.Q.[Nle].A.V.K.K.Y.L.N.S.I.L.N.[am]}$$$$V2.0)	263%	3.8e-09 M	165%
CCCC[C@H](NC(=O)[C@H](CCC(N)=O)NC(=O)[C@H](CCCCN)NC(=O)[C@H](CCCNC(=N)N)NC(=O)[C@H](CC(C)C)NC(=O)[C@H](CCCNC(=N)N)NC(=O)[C@@H](NC(=O)[C@H](Cc1ccc(O)cc1)NC(=O)[C@H](CC(N)=O)NC(=O)[C@H](CC(=O)O)NC(=O)[C@@H](NC(=O)[C@H](Cc1ccccc1)NC(=O)[C@@H](NC(=O)[C@H](C)NC(=O)[C@H](CC(=O)O)NC(=O)[C@H](CO)NC(=O)[C@@H](N)Cc1c[nH]cn1)C(C)C)[C@@H](C)O)[C@@H](C)O)C(=O)N[C@@H](C)C(=O)N[C@H](C(=O)N[C@@H](CCCCN)C(=O)N[C@@H](CCCCN)C(=O)N[C@@H](Cc1ccc(O)cc1)C(=O)N[C@@H](CC(C)C)C(=O)N[C@@H](CC(N)=O)C(=O)N[C@@H](CO)C(=O)N[C@H](C(=O)N[C@@H](CC(C)C)C(=O)N[C@@H](CC(N)=O)C(N)=O)[C@@H](C)CC)C(C)C [(Nle^17)--VIP, (Nle^17)VIP]	156%	6.4e-09 M	215%
CCCC[C@H](NC(=O)[C@H](CCC(N)=O)NC(=O)[C@H](CCCCN)NC(=O)[C@H](CCCNC(=N)N)NC(=O)[C@H](CC(C)C)NC(=O)[C@H](CCCNC(=N)N)NC(=O)[C@@H](NC(=O)[C@H](Cc1ccc(O)cc1)NC(=O)[C@H](CC(N)=O)NC(=O)[C@H](CC(=O)O)NC(=O)[C@@H](NC(=O)[C@H](Cc1ccccc1)NC(=O)[C@@H](NC(=O)[C@H](C)NC(=O)[C@H](CC(=O)O)NC(=O)[C@H](CO)NC(=O)[C@@H](N)Cc1c[nH]cn1)C(C)C)[C@@H](C)O)[C@@H](C)O)C(=O)N[C@@H](C)C(=O)N[C@H](C(=O)N[C@@H](CCCCN)C(=O)N[C@@H](CCCCN)C(=O)N[C@@H](Cc1ccc(O)cc1)C(=O)N[C@@H](CC(C)C)C(=O)N[C@@H](CC(N)=O)C(=O)N[C@@H](CO)C(=O)N[C@H](C(=O)N[C@@H](CC(C)C)C(=O)N[C@H](C(N)=O)[C@@H](C)O)C(C)C)C(C)C [(Nle^17, Val^26, Thr^28)--VIP, (Nle^17, Val^26, Thr^28)VIP] (HELM PEPTIDE1{H.S.D.A.V.F.T.D.N.Y.T.R.L.R.K.Q.[Nle].A.V.K.K.Y.L.N.S.V.L.T.[am]}$$$$V2.0)	208%	4.8e-09 M	–
CCCC[C@H](NC(=O)[C@H](CCC(N)=O)NC(=O)[C@H](CCCCN)NC(=O)[C@H](CCCNC(=N)N)NC(=O)[C@H](CC(C)C)NC(=O)[C@H](CCCN)NC(=O)[C@@H](NC(=O)[C@H](Cc1ccc(O)cc1)NC(=O)[C@H](CC(N)=O)NC(=O)[C@H](CC(=O)O)NC(=O)[C@@H](NC(=O)[C@H](Cc1ccccc1)NC(=O)[C@@H](NC(=O)[C@H](C)NC(=O)[C@H](CC(=O)O)NC(=O)[C@H](CO)NC(=O)[C@@H](N)Cc1c[nH]cn1)C(C)C)[C@@H](C)O)[C@@H](C)O)C(=O)N[C@@H](C)C(=O)N[C@H](C(=O)N[C@@H](CCCCN)C(=O)N[C@@H](CCCCN)C(=O)N[C@@H](Cc1ccc(O)cc1)C(=O)N[C@@H](CC(C)C)C(=O)N[C@@H](CC(N)=O)C(=O)N[C@@H](CO)C(=O)N[C@H](C(=O)N[C@@H](CC(C)C)C(=O)N[C@@H](CC(N)=O)C(N)=O)[C@@H](C)CC)C(C)C [(Orn^12, Nle^17)--VIP, (Orn^12, Nle^17)VIP]	200%	5e-09 M	195%
CCCC[C@H](NC(=O)[C@H](CCC(N)=O)NC(=O)[C@H](CCCCN)NC(=O)[C@H](CCCNC(=N)N)NC(=O)[C@H](CC(C)C)NC(=O)[C@H](CCCCN)NC(=O)[C@@H](NC(=O)[C@H](Cc1ccc(O)cc1)NC(=O)[C@H](CC(N)=O)NC(=O)[C@H](CC(=O)O)NC(=O)[C@@H](NC(=O)[C@H](Cc1ccccc1)NC(=O)[C@@H](NC(=O)[C@H](C)NC(=O)[C@H](CC(=O)O)NC(=O)[C@H](CO)NC(=O)[C@H](Cc1c[nH]cn1)NC(C)=O)C(C)C)[C@@H](C)O)[C@@H](C)O)C(=O)N[C@@H](C)C(=O)N[C@H](C(=O)N[C@@H](CCCCN)C(=O)N[C@@H](CCCCN)C(=O)N[C@@H](Cc1ccc(O)cc1)C(=O)N[C@@H](CC(C)C)C(=O)N[C@@H](CC(N)=O)C(=O)N[C@@H](CO)C(=O)N[C@H](C(=O)N[C@@H](CC(C)C)C(=O)N[C@@H](CC(N)=O)C(N)=O)[C@@H](C)CC)C(C)C [Ac--(Lys^12, Nle^17)--VIP, Ac-(Lys^12, Nle^17)VIP] (HELM PEPTIDE1{[ac].H.S.D.A.V.F.T.D.N.Y.T.K.L.R.K.Q.[Nle].A.V.K.K.Y.L.N.S.I.L.N.[am]}$$$$V2.0)	67%	1.5e-08 M	–
CCCC[C@H](NC(=O)[C@H](CCC(N)=O)NC(=O)[C@H](CCCCN)NC(=O)[C@H](CCCNC(=N)N)NC(=O)[C@H](Cc1ccccc1)NC(=O)[C@H](CCCNC(=N)N)NC(=O)[C@H](CO)NC(=O)[C@H](Cc1ccc(O)cc1)NC(=O)[C@H](CC(N)=O)NC(=O)[C@H](CC(=O)O)NC(=O)[C@@H](NC(=O)[C@H](Cc1ccccc1)NC(=O)[C@@H](NC(=O)[C@H](C)NC(=O)[C@H](CC(=O)O)NC(=O)[C@H](CO)NC(=O)[C@H](Cc1c[nH]cn1)NC(C)=O)C(C)C)[C@@H](C)O)C(=O)N[C@@H](C)C(=O)N[C@H](C(=O)N[C@@H](CCCCN)C(=O)N[C@@H](CCCCN)C(=O)N[C@@H](Cc1ccc(O)cc1)C(=O)N[C@@H](CC(C)C)C(=O)N[C@@H](CC(N)=O)C(=O)N[C@@H](CO)C(=O)N[C@H](C(=O)N[C@@H](CC(C)C)C(=O)N[C@@H](CC(N)=O)C(N)=O)[C@@H](C)CC)C(C)C [Ac--(Ser^11, Phe^13, Nle^17)--VIP, Ac-(Ser^11, Phe^13, Nle^17)VIP] (HELM PEPTIDE1{[ac].H.S.D.A.V.F.T.D.N.Y.S.R.F.R.K.Q.[Nle].A.V.K.K.Y.L.N.S.I.L.N.[am]}$$$$V2.0)	45%	2.2e-08 M	–
